Assay results: the supplement of paper PMC10307832

Experiments:
Test in all cases: relative viability (nuclei count vs DMSO), 5 days (fraction); higher = more cells survive
HCC-78 = test system: HCC-78
Method in brief: (§1)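 The day after seeding in 1536-well plates, lung cancer cell lines were treated by pin tool with a single drug, or with a fixed anchor-drug dose together with five library-drug doses (not always all listed) in √10 steps. After 5 days, a combined fix-and-stain solution (final 0.05% Triton X-100, 1% formaldehyde, 1 ug/ml Hoechst) was added. Nuclei counted on 4× images gave relative viability as treated counts over vehicle counts, reported as the median of duplicate plates.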

NCI-H2170 = test system: NCI-H2170
Method in brief: as §1

NCI-H2228 = test system: NCI-H2228
Method in brief: as §1

NCI-H1734 = test system: NCI-H1734
Method in brief: as §1

RERF-LC-KJ = test system: RERF-LC-KJ
Method in brief: as §1

UMC-11 = test system: UMC-11
Method in brief: as §1

NCI-H2405 = test system: NCI-H2405
Method in brief: as §1

NCI-H1944 = test system: NCI-H1944
Method in brief: as §1

PC-3 [JPC-3] = test system: PC-3 [JPC-3]
Method in brief: as §1

NCI-H460 = test system: NCI-H460
Method in brief: as §1

NCI-H3122 = test system: NCI-H3122
Method in brief: as §1

NCI-H1651 = test system: NCI-H1651
Method in brief: as §1

EPLC-272H = test system: EPLC-272H
Method in brief: as §1

LC-2-ad = test system: LC-2-ad
Method in brief: as §1

NCI-H1395 = test system: NCI-H1395
Method in brief: as §1

NCI-H2087 = test system: NCI-H2087
Method in brief: as §1

LU99A = test system: LU99A
Method in brief: as §1

ABC-1 = test system: ABC-1
Method in brief: as §1

CAL-12T = test system: CAL-12T
Method in brief: as §1

NCI-H1755 = test system: NCI-H1755
Method in brief: as §1

HCC-366 = test system: HCC-366
Method in brief: as §1

LOU-NH91 = test system: LOU-NH91
Method in brief: as §1

NCI-H1793 = test system: NCI-H1793
Method in brief: as §1

## CC(C)Oc1cc(Nc2nc(N[C@@H](C)c3ccc(F)cn3)ncc2Cl)n[nH]1 [AZ23] + CS(=O)(=O)CCNCc1ccc(-c2ccc3ncnc(Nc4ccc(OCc5cccc(F)c5)c(Cl)c4)c3c2)o1 [Lapatinib] (partner 2 µM)
HCC-78; first compound 0.01 µM
  relative viability: 0.469
HCC-78; first compound 0.03162 µM
  relative viability: 1
HCC-78; first compound 0.3162 µM
  relative viability: 0.456
NCI-H2170; first compound 0.01 µM
  relative viability: 0.267
NCI-H2170; first compound 0.03162 µM
  relative viability: 0.283
NCI-H2170; first compound 0.3162 µM
  relative viability: 0.27
NCI-H2228; first compound 0.01 µM
  relative viability: 1.51
NCI-H2228; first compound 0.03162 µM
  relative viability: 0.867
NCI-H2228; first compound 0.3162 µM
  relative viability: 0.992
NCI-H1734; first compound 0.01 µM
  relative viability: 1.27
NCI-H1734; first compound 0.03162 µM
  relative viability: 1.23
NCI-H1734; first compound 0.3162 µM
  relative viability: 1.11
RERF-LC-KJ; first compound 0.01 µM
  relative viability: 0.965
RERF-LC-KJ; first compound 0.03162 µM
  relative viability: 1.15
RERF-LC-KJ; first compound 0.3162 µM
  relative viability: 0.881
UMC-11; first compound 0.01 µM
  relative viability: 0.946
UMC-11; first compound 0.03162 µM
  relative viability: 0.994
UMC-11; first compound 0.3162 µM
  relative viability: 1.02
NCI-H2405; first compound 0.01 µM
  relative viability: 1
NCI-H2405; first compound 0.03162 µM
  relative viability: 1.16
NCI-H2405; first compound 0.3162 µM
  relative viability: 0.943
NCI-H1944; first compound 0.01 µM
  relative viability: 0.789
NCI-H1944; first compound 0.03162 µM
  relative viability: 0.88
NCI-H1944; first compound 0.3162 µM
  relative viability: 0.903
PC-3 [JPC-3]; first compound 0.01 µM
  relative viability: 0.464
PC-3 [JPC-3]; first compound 0.03162 µM
  relative viability: 0.489
PC-3 [JPC-3]; first compound 0.3162 µM
  relative viability: 0.454
NCI-H460; first compound 0.01 µM
  relative viability: 0.519
NCI-H460; first compound 0.03162 µM
  relative viability: 1.1
NCI-H460; first compound 0.3162 µM
  relative viability: 1.5
NCI-H3122; first compound 0.01 µM
  relative viability: 1.08
NCI-H3122; first compound 0.03162 µM
  relative viability: 1.01
NCI-H3122; first compound 0.3162 µM
  relative viability: 1.04
NCI-H1651; first compound 0.01 µM
  relative viability: 0.685
NCI-H1651; first compound 0.03162 µM
  relative viability: 0.921
NCI-H1651; first compound 0.3162 µM
  relative viability: 0.973
EPLC-272H; first compound 0.01 µM
  relative viability: 0.885
EPLC-272H; first compound 0.03162 µM
  relative viability: 1.16
LC-2-ad; first compound 0.01 µM
  relative viability: 1.32
LC-2-ad; first compound 0.03162 µM
  relative viability: 0.997
LC-2-ad; first compound 0.3162 µM
  relative viability: 0.912
NCI-H1395; first compound 0.03162 µM
  relative viability: 0.943
NCI-H1395; first compound 0.3162 µM
  relative viability: 1.03
NCI-H2087; first compound 0.01 µM
  relative viability: 1.17
NCI-H2087; first compound 0.03162 µM
  relative viability: 1.17
NCI-H2087; first compound 0.3162 µM
  relative viability: 1.05
LU99A; first compound 0.01 µM
  relative viability: 1.2
LU99A; first compound 0.03162 µM
  relative viability: 1.08
LU99A; first compound 0.3162 µM
  relative viability: 1.09
ABC-1; first compound 0.01 µM
  relative viability: 1.15
ABC-1; first compound 0.03162 µM
  relative viability: 1.24
ABC-1; first compound 0.3162 µM
  relative viability: 1.17
CAL-12T; first compound 0.03162 µM
  relative viability: 0.701
CAL-12T; first compound 0.3162 µM
  relative viability: 0.647
NCI-H1755; first compound 0.01 µM
  relative viability: 1.28
NCI-H1755; first compound 0.03162 µM
  relative viability: 1.16
NCI-H1755; first compound 0.3162 µM
  relative viability: 1.05
HCC-366; first compound 0.01 µM
  relative viability: 0.905
HCC-366; first compound 0.03162 µM
  relative viability: 1.52
HCC-366; first compound 0.3162 µM
  relative viability: 1.11
LOU-NH91; first compound 0.01 µM
  relative viability: 0.674
LOU-NH91; first compound 0.03162 µM
  relative viability: 0.787
LOU-NH91; first compound 0.3162 µM
  relative viability: 0.716
NCI-H1793; first compound 0.01 µM
  relative viability: 0.367
NCI-H1793; first compound 0.03162 µM
  relative viability: 0.804
NCI-H1793; first compound 0.3162 µM
  relative viability: 0.486

## C[C@@H]1CN(CC(=O)Nc2ccc3c(c2)Cc2cccc(-c4cc(=O)cc(N5CCOCC5)o4)c2S3)C[C@H](C)O1 + Cc1nc(NC(=O)N2CCC[C@H]2C(N)=O)sc1-c1ccnc(C(C)(C)C(F)(F)F)c1 [Alpelisib] (partner 2 µM)
HCC-78; first compound 0.04 µM
  relative viability: 0.303
HCC-78; first compound 0.1265 µM
  relative viability: 0.3
HCC-78; first compound 0.4 µM
  relative viability: 0.278
HCC-78; first compound 4 µM
  relative viability: 0.33
NCI-H2170; first compound 0.1265 µM
  relative viability: 0.761
NCI-H2170; first compound 0.4 µM
  relative viability: 0.727
NCI-H2170; first compound 4 µM
  relative viability: 0.751
NCI-H2228; first compound 0.04 µM
  relative viability: 0.708
NCI-H2228; first compound 0.1265 µM
  relative viability: 0.707
NCI-H2228; first compound 0.4 µM
  relative viability: 0.754
NCI-H2228; first compound 4 µM
  relative viability: 0.485
NCI-H1734; first compound 0.04 µM
  relative viability: 0.759
NCI-H1734; first compound 0.1265 µM
  relative viability: 0.673
NCI-H1734; first compound 0.4 µM
  relative viability: 0.567
NCI-H1734; first compound 4 µM
  relative viability: 0.746
RERF-LC-KJ; first compound 0.04 µM
  relative viability: 0.869
RERF-LC-KJ; first compound 0.1265 µM
  relative viability: 0.764
RERF-LC-KJ; first compound 0.4 µM
  relative viability: 0.774
RERF-LC-KJ; first compound 4 µM
  relative viability: 0.792
UMC-11; first compound 0.04 µM
  relative viability: 1.1
UMC-11; first compound 0.1265 µM
  relative viability: 1.02
UMC-11; first compound 0.4 µM
  relative viability: 1.1
UMC-11; first compound 4 µM
  relative viability: 0.737
NCI-H2405; first compound 0.04 µM
  relative viability: 0.899
NCI-H2405; first compound 0.1265 µM
  relative viability: 0.818
NCI-H2405; first compound 0.4 µM
  relative viability: 0.769
NCI-H2405; first compound 4 µM
  relative viability: 0.698
NCI-H1944; first compound 0.1265 µM
  relative viability: 0.826
NCI-H1944; first compound 0.4 µM
  relative viability: 0.86
NCI-H1944; first compound 4 µM
  relative viability: 0.814
PC-3 [JPC-3]; first compound 0.04 µM
  relative viability: 1.02
PC-3 [JPC-3]; first compound 0.1265 µM
  relative viability: 1
PC-3 [JPC-3]; first compound 0.4 µM
  relative viability: 1
PC-3 [JPC-3]; first compound 4 µM
  relative viability: 0.952
NCI-H460; first compound 0.04 µM
  relative viability: 0.517
NCI-H460; first compound 0.1265 µM
  relative viability: 0.416
NCI-H460; first compound 0.4 µM
  relative viability: 0.355
NCI-H460; first compound 4 µM
  relative viability: 0.265
NCI-H3122; first compound 0.04 µM
  relative viability: 0.861
NCI-H3122; first compound 0.1265 µM
  relative viability: 0.682
NCI-H3122; first compound 0.4 µM
  relative viability: 0.629
NCI-H3122; first compound 4 µM
  relative viability: 0.699
NCI-H1651; first compound 0.04 µM
  relative viability: 0.953
NCI-H1651; first compound 0.1265 µM
  relative viability: 0.923
NCI-H1651; first compound 0.4 µM
  relative viability: 0.881
NCI-H1651; first compound 4 µM
  relative viability: 1.06
EPLC-272H; first compound 0.04 µM
  relative viability: 0.928
EPLC-272H; first compound 0.1265 µM
  relative viability: 0.806
EPLC-272H; first compound 0.4 µM
  relative viability: 0.857
EPLC-272H; first compound 4 µM
  relative viability: 1.1
LC-2-ad; first compound 0.04 µM
  relative viability: 1.02
LC-2-ad; first compound 0.1265 µM
  relative viability: 0.864
LC-2-ad; first compound 0.4 µM
  relative viability: 0.77
LC-2-ad; first compound 4 µM
  relative viability: 0.848
NCI-H1395; first compound 0.04 µM
  relative viability: 0.958
NCI-H1395; first compound 0.1265 µM
  relative viability: 1.08
NCI-H1395; first compound 0.4 µM
  relative viability: 1.05
NCI-H1395; first compound 4 µM
  relative viability: 1.08
NCI-H2087; first compound 0.04 µM
  relative viability: 1.49
NCI-H2087; first compound 0.1265 µM
  relative viability: 1.2
NCI-H2087; first compound 0.4 µM
  relative viability: 1.2
NCI-H2087; first compound 4 µM
  relative viability: 0.837
LU99A; first compound 0.04 µM
  relative viability: 0.475
LU99A; first compound 0.1265 µM
  relative viability: 0.532
LU99A; first compound 0.4 µM
  relative viability: 0.567
LU99A; first compound 4 µM
  relative viability: 0.566
ABC-1; first compound 0.1265 µM
  relative viability: 1.05
ABC-1; first compound 0.4 µM
  relative viability: 0.872
ABC-1; first compound 4 µM
  relative viability: 0.466
CAL-12T; first compound 0.04 µM
  relative viability: 1.33
CAL-12T; first compound 0.1265 µM
  relative viability: 1.37
CAL-12T; first compound 0.4 µM
  relative viability: 1.19
CAL-12T; first compound 4 µM
  relative viability: 0.841
NCI-H1755; first compound 0.04 µM
  relative viability: 0.934
NCI-H1755; first compound 0.1265 µM
  relative viability: 0.88
NCI-H1755; first compound 0.4 µM
  relative viability: 0.845
NCI-H1755; first compound 4 µM
  relative viability: 0.863
HCC-366; first compound 0.04 µM
  relative viability: 0.379
HCC-366; first compound 0.1265 µM
  relative viability: 0.414
HCC-366; first compound 0.4 µM
  relative viability: 0.315
HCC-366; first compound 4 µM
  relative viability: 0.368
LOU-NH91; first compound 0.04 µM
  relative viability: 0.756
LOU-NH91; first compound 0.1265 µM
  relative viability: 0.72
LOU-NH91; first compound 0.4 µM
  relative viability: 0.692
LOU-NH91; first compound 4 µM
  relative viability: 0.689
NCI-H1793; first compound 0.04 µM
  relative viability: 0.717
NCI-H1793; first compound 0.1265 µM
  relative viability: 0.614
NCI-H1793; first compound 0.4 µM
  relative viability: 0.514
NCI-H1793; first compound 4 µM
  relative viability: 0.585
